Molecular target: T1, human SCD1 (hSCD-1) (Homo sapiens, UniProt O00767)
T1 construct: made in house; host or cells: baculovirus/Sf9
T1 sequence (O00767 1-359): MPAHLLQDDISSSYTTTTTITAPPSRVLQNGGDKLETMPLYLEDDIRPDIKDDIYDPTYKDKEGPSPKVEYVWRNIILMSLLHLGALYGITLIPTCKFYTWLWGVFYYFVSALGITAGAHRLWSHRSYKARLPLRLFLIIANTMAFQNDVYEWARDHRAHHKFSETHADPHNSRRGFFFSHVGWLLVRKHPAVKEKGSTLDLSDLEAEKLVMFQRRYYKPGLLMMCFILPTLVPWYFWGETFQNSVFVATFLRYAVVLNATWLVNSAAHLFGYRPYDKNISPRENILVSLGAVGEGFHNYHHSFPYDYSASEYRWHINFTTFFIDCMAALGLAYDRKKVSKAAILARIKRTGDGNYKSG
Assay: SCD enzyme activity assay, reconstituted human SCD1 (hSCD-1)
Type: biochemical
Protocol: The potency of compounds of formula I against the stearoyl-CoA desaturase was determined by measuring the conversion of radiolabeled stearoyl-CoA to oleoyl-CoA using rat liver microsome or human SCD1 (hSCD-1) following previously published procedures with some modifications (Joshi, et al., J. Lipid Res., 18: 32-36 (1977); Talamo, et al., Anal. Biochem, 29: 300-304 (1969)). Liver microsome was prepared from male Wistar or Sprague Dawley rats on a high carbohydrate diet for 3 days (LabDiet #5803, Purina). The livers were homogenized (1:10 w/v) in a buffer containing 250 mM sucrose, 1 mM EDTA, 5 mM DTT and 50 mM Tris-HCl (pH 7.5). After a 100,000×g centrifugation for 60 min, the liver microsome pellet was suspended in a buffer containing 100 mM sodium phosphate, 20% glycerol, 2 mM DTT, and stored at −78° C. Human SCD1 desaturase system was reconstituted using human SCD1 from a baculovirus/Sf9 expression system, cytochrome B5 and cytochrome B5 reductase. Typically, test compound in 2 μL DMSO was incubated for 15 min at room temperature with 180 μL of the SCD enzyme in a buffer containing 100 mM Tris-HCl (pH 7.5), ATP (5 mM), Coenzyme-A (0.1 mM), Triton X-100 (0.5 mM) and NADH (2 mM). The reaction was initiated by the addition of 20 μL of [^3H]-stearoyl-CoA (final concentration=2 μM, radioactivity concentration=1 μCi/mL). After 10 min, the reaction mixture (80 μL) was mixed with a calcium chloride/charcoal aqueous suspension (100 μL charcoal (10% w/v) plus 25 μL CaCl2 (2N). After centrifugation to precipitate the radioactive fatty acid species, tritiated water released from 9,10-[^3H]-stearoyl-CoA by the SCD enzyme was quantified on a scintillation counter.

With O=C(O)Cn1nnc(-c2cnc(N3CC4CN(c5cc(OC(F)(F)F)ccc5Cl)CC4C3)s2)n1 (centres unmarked) as the compound, how does the IC50 read?
Its IC50 is 10 nM.

Which IC50 does the source give for O=C(O)Cn1nnc(-c2cnc(N3CCC4(CC3)CN(c3cc(F)ccc3Cl)C4)s2)n1 here?
Its IC50 is 39 nM.

For O=C(O)Cn1nnc(-c2cnc(N3CC4CN(c5cc(C(F)(F)F)ccc5Br)CC4C3)s2)n1 (centres unmarked), which IC50 is on record?
The IC50 was 14 nM.

Which IC50 does the source give for O=C(O)Cn1nnc(-c2cc(N3CC4CN(c5cc(F)ccc5Cl)CC4C3)no2)n1 (centres unmarked) here?
The IC50 was 27 nM.

With O=C(O)Cn1nnc(-c2cnc(N3CC4(C3)CN(c3cc(F)ccc3Cl)C4)s2)n1 as the compound, how does the IC50 read?
The IC50 was 11 nM.

For O=C(O)Cn1nnc(-c2cnc(N3CCC4(CCN(c5ccccc5Cl)C4)C3)s2)n1 (centres unmarked), which IC50 is on record?
The IC50 was 161 nM.

For O=C(O)Cn1nnc(-c2cnc(N3CC4CN(c5cc(Cl)cc(F)c5Cl)CC4C3)s2)n1 (centres unmarked), which IC50 is on record?
The IC50 was 13 nM.

O=C(O)Cn1nnc(-c2cnc(N3CC4CN(c5cc(Cl)ccc5Cl)CC4C3)s2)n1 (centres unmarked) was tested. Which IC50 did it give?
Its IC50 is 13 nM.

O=C(O)Cn1nnc(-c2cnc(N3CC4(CCN(c5cc(F)ccc5Cl)CC4)C3)s2)n1 was tested. Which IC50 did it give?
Its IC50 is 45 nM.

How did the IC50 turn out when O=C(O)Cn1nnc(-c2cnc(N3CC4CN(c5cc(F)ccc5Cl)CC4C3)s2)n1 (centres unmarked) was run?
Its IC50 is 12 nM.

For O=C(O)Cn1nnc(-c2cnc(N3CC4CN(c5cc(F)ccc5Br)CC4C3)nc2)n1 (centres unmarked), which IC50 is on record?
The IC50 was 77 nM.

From patent US20120010186A1, “HETEROCYCLIC COMPOUNDS AS INHIBITORS OF STEAROYL-COENZYME A DELTA-9 DESATURASE” (MERCK FROSST CANADA LTD., priority 2009, published 2012)
